Assay results as given in patent US20240382482A1, “PLASMA KALLIKREIN INHIBITORS” (TAKEDA PHARMACEUTICAL COMPANY LIMITED, priority 2021, published 2024).
Where a name gives a salt, the structure may show the parent alone.

How the values were obtained:
[1] = molecular target: T1, plasma kallikrein (Homo sapiens, UniProt P03952); experiment: Neat human plasma assay (fluorogenic peptide), contact pathway-activated plasma; type: biochemical; details: sodium citrate human plasma (78% final), 10 nM human FXIIa, 100 μM PFR-AMC, room temperature
T1 construct: added to sodium citrate collected human or rat plasma in a 96-well microplate; from tissue
T1 sequence (P03952 391-638 limits assumed): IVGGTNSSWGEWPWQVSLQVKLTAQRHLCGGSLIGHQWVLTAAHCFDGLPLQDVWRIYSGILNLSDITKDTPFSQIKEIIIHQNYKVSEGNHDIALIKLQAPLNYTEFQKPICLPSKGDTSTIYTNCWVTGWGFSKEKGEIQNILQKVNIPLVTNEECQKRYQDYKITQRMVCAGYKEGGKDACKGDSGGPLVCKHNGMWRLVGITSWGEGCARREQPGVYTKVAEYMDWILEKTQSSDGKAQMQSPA
T1 sequence (P03952 20-390 partner limits assumed): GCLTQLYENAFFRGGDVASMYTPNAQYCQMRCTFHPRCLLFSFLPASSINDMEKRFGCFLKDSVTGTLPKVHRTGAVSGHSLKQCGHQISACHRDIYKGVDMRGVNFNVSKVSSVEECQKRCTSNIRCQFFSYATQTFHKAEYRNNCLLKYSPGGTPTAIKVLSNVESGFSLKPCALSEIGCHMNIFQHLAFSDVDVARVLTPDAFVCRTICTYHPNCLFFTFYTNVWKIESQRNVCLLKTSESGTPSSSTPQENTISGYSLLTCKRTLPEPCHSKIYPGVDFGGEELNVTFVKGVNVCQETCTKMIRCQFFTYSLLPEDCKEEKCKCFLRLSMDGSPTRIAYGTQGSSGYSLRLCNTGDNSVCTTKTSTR
Description: To analyze inhibition of plasma kallikrein in an ex vivo setting, the potency of compounds was measure in contact pathway-activated plasma assays. In a fluorogenic peptide substrate assay, test compounds dissolved in DMSO were added to sodium citrate collected human or rat plasma in a 96-well microplate. Alternatively, citrated plasma was collected from rats administered the compounds orally or by IV. 10 nM of human FXIIa (Enzyme Research Laboratories) diluted in PKa buffer (20 mM Tris-HCl, pH 7.5, 150 mM NaCl, 1 mM EDTA, 0.1% PEG-8000, and 0.1% Triton X-100) was added to the plasma, followed by the 100 μM of the profluorescent, synthetic plasma kallikrein substrate PFR-AMC (also diluted in PKa buffer). Final plasma concentration in the reaction was 78%. Fluorescence was immediately monitored by excitation/emission wavelengths of 360 nm/480 nm respectively over a period of 5 minutes in a microplate reader. The resulting linear increase in fluorescence emission (reflecting PKa proteolysis of PFR-AMC substrate) was fit to extract a proteolytic rate (fluorescent units over time), and this rate was subsequently plotted against compound inhibitor concentration. Resulting plots were fit to a standard 4-parameter IC50/IC90 equation to determine min/max values, IC50/90, and slope. All experimental steps were performed at room temperature.

[2] = molecular target: human activated kallikrein enzyme (Homo sapiens, UniProt P03952); experiment: Inhibition of human activated kallikrein enzyme, fluorogenic peptide substrate assay (500 pM enzyme format); type: biochemical; details: 500 pM activated kallikrein, 300 μM PFR-AMC substrate, 30 min preincubation, 10 min reaction, room temperature; read-out: Primary Dose Response Assay: Average EC50
human activated kallikrein enzyme, sequence (P03952 391-638 limits assumed): as the sequence (P03952 391-638 limits assumed) above
human activated kallikrein enzyme, sequence (P03952 20-390 partner limits assumed): as the sequence (P03952 20-390 partner limits assumed) above
Method in brief: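 500 pM enzyme preincubated 30 min at room temperature with inhibitor in 20 mM Tris pH 7.5, 150 mM NaCl, 1 mM EDTA, 0.1% PEG-400, 0.1% Triton X-100. Reaction started with 300 μM PFR-AMC and run 10 min at room temperature. AMC fluorescence read at ex 380/em 460 nm, and EC50 values reported as ranges.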

Compound: O=C(Cc1ncn2ccc(Cl)cc12)Nc1cc(NCc2cn3cc(C4CC4)ccc3n2)cnn1 [Example 31, 2-(7-chloroimidazo[1,5-a]pyridin-1-yl)-N-(5-(((6-cyclopropylimidazo[1,2-a]pyridin-2-yl)methyl)amino)pyridazin-3-yl)acetamide]
- IC90 [1]: 500 to 5000 nM
- EC50 [2]: ≤ 5 nM

Compound: N#Cc1cc(C2CC2)cn2cc(CNc3ccnc(NC(=O)Cc4ncn5ccc(Cl)cc45)c3)nc12 [Example 30, 2-(7-chloroimidazo[1,5-a]pyridin-1-yl)-N-(4-(((8-cyano-6-cyclopropylimidazo[1,2-a]pyridin-2-yl)methyl)amino)pyridin-2-yl)acetamide]
- IC90 [1]: 500 to 5000 nM
- EC50 [2]: ≤ 5 nM

Compound: O=C(Cc1ncn2ccc(Cl)cc12)Nc1cc(NCc2cn3cc(C4CC4)cc(CO)c3n2)ccn1 [Example 52, 2-(7-chloroimidazo[1,5-a]pyridin-1-yl)-N-(4-(((6-cyclopropyl-8-(hydroxymethyl)imidazo[1,2-a]pyridin-2-yl)methyl)amino)pyridin-2-yl)acetamide]
- IC90 [1]: ≤ 500 nM
- EC50 [2]: ≤ 5 nM

Compound: O=C(Cc1ncn2ccc(Cl)cc12)Nc1cc(NCc2cn3cc(C4CC4)ccc3n2)ncn1 [Example 1, 2-(7-chloroimidazo[1,5-a]pyridin-1-yl)-N-(6-(((6-cyclopropylimidazo[1,2-a]pyridin-2-yl)methyl)amino)pyrimidin-4-yl)acetamide]
- IC90 [1]: 500 to 5000 nM
- EC50 [2]: ≤ 5 nM

Compound: Cc1cc(N)nc(C)c1CNc1cc(N2C[C@@H](O)C[C@@H]2c2cn3cc(C4CC4)ccc3n2)ncn1 [Example 135, (3S,5R)-1-(6-(((6-amino-2,4-dimethylpyridin-3-yl)methyl)amino)pyrimidin-4-yl)-5-(6-cyclopropylimidazo[1,2-a]pyridin-2-yl)pyrrolidin-3-ol]
- IC90 [1]: ≤ 500 nM
- EC50 [2]: ≤ 5 nM

Compound: O=C(Cc1n[nH]c2ccc(Cl)cc12)Nc1cc(NCc2cn3cc(C4CC4)ccc3n2)ccn1 [Example 26, 2-(5-chloro-1H-indazol-3-yl)-N-(4-(((6-cyclopropylimidazo[1,2-a]pyridin-2-yl)methyl)amino)pyridin-2-yl)acetamide]
- IC90 [1]: 5000 to 25000 nM
- EC50 [2]: ≤ 5 nM

Compound: O=C(Cc1ncn2ccc(Cl)cc12)Nc1cc(NCc2cn3cc(C4CC4)cc(N4CCCC4=O)c3n2)ncn1 [Example 12, 2-(7-chloroimidazo[1,5-a]pyridin-1-yl)-N-(6-(((6-cyclopropyl-8-(2-oxopyrrolidin-1-yl)imidazo[1,2-a]pyridin-2-yl)methyl)amino)pyrimidin-4-yl)acetamide]
- IC90 [1]: 500 to 5000 nM
- EC50 [2]: ≤ 5 nM

Compound: Cc1cc(N)nc(C)c1CNc1cc(OCc2cn3cc(C4CC4)cc(C#N)c3n2)ncn1 [Example 112, 2-(((6-(((6-amino-2,4-dimethylpyridin-3-yl)methyl)amino)pyrimidin-4-yl)oxy)methyl)-6-cyclopropylimidazo[1,2-a]pyridine-8-carbonitrile]
- IC90 [1]: 500 to 5000 nM
- EC50 [2]: ≤ 5 nM

Compound: CN1CCN(c2cc(C3CC3)cn3cc(CNc4cc(NC(=O)Cc5ncn6ccc(Cl)cc56)ncn4)nc23)CC1 [Example 17, 2-(7-chloroimidazo[1,5-a]pyridin-1-yl)-N-(6-(((6-cyclopropyl-8-(4-methylpiperazin-1-yl)imidazo[1,2-a]pyridin-2-yl)methyl)amino)pyrimidin-4-yl)acetamide]
- IC90 [1]: ≤ 500 nM
- EC50 [2]: ≤ 5 nM

Compound: COc1ccc(-n2cnnn2)c(CNc2cc(NCc3cn4cc(C5CC5)ccc4n3)ncn2)c1F [Example 55, N^4-((6-cyclopropylimidazo[1,2-a]pyridin-2-yl)methyl)-N^6-(2-fluoro-3-methoxy-6-(1H-tetrazol-1-yl)benzyl)pyrimidine-4,6-diamine]
- IC90 [1]: 500 to 5000 nM
- EC50 [2]: ≤ 5 nM

Compound: CN1C(=O)CN(c2cc(C3CC3)cn3cc(CNc4cc(NC(=O)Cc5ncn6ncc(Cl)cc56)ncn4)nc23)C1=O [Example 141, 2-(3-chloroimidazo[1,5-b]pyridazin-5-yl)-N-(6-(((6-cyclopropyl-8-(3-methyl-2,4-dioxoimidazolidin-1-yl)imidazo[1,2-a]pyridin-2-yl)methyl)amino)pyrimidin-4-yl)acetamide]
- IC90 [1]: 500 to 5000 nM
- EC50 [2]: ≤ 5 nM

Compound: O=C(Cc1ncn2ccc(Cl)cc12)Nc1cc(NCc2cn3cc(C4CC4)cc(C4(O)COC4)c3n2)ncn1 [Example 14, 2-(7-chloroimidazo[1,5-a]pyridin-1-yl)-N-(6-(((6-cyclopropyl-8-(3-hydroxyoxetan-3-yl)imidazo[1,2-a]pyridin-2-yl)methyl)amino)pyrimidin-4-yl)acetamide]
- IC90 [1]: ≤ 500 nM
- EC50 [2]: ≤ 5 nM

Compound: Cc1cc(N)nc(C)c1CNc1cc(OCc2cn3cc(C4CC4)cc(C4(F)COC4)c3n2)ncn1 [Example 109, N-((6-amino-2,4-dimethylpyridin-3-yl)methyl)-6-((6-cyclopropyl-8-(3-fluorooxetan-3-yl)imidazo[1,2-a]pyridin-2-yl)methoxy)pyrimidin-4-amine]
- IC90 [1]: ≤ 500 nM
- EC50 [2]: ≤ 5 nM

Compound: Cc1cc(N)nc(C)c1CNc1cc(OCc2cn3cc(C4CC4)ccc3n2)ccn1 [Example 110, 5-(((4-((6-cyclopropylimidazo[1,2-a]pyridin-2-yl)methoxy)pyridin-2-yl)amino)methyl)-4,6-dimethylpyridin-2-amine]
- IC90 [1]: 5000 to 25000 nM
- EC50 [2]: ≤ 5 nM

Compound: O=C(Cc1ncn2ccc(Cl)cc12)Nc1cc(C(O)c2cn3cc(C4CC4)ccc3n2)ncn1 (stereo not shown) [Example 59, 2-(7-chloroimidazo[1,5-a]pyridin-1-yl)-N-(6-((6-cyclopropylimidazo[1,2-a]pyridin-2-yl)(hydroxy)methyl)pyrimidin-4-yl)acetamide]
- EC50 [2]: ≤ 5 nM

Compound: Cc1cc(N)nc(C)c1CNc1cc(OCc2cn3cc(C4CC4)ccc3n2)ncn1 [Example 107, N-((6-amino-2,4-dimethylpyridin-3-yl)methyl)-6-((6-cyclopropylimidazo[1,2-a]pyridin-2-yl)methoxy)pyrimidin-4-amine]
- IC90 [1]: 5000 to 25000 nM
- EC50 [2]: ≤ 5 nM

Compound: O=C(Cc1ncn2ccc(Cl)cc12)Nc1cc(OCc2cn3cc(C4CC4)ccc3n2)ccn1 [Example 23, 2-(7-chloroimidazo[1,5-a]pyridin-1-yl)-N-(4-((6-cyclopropylimidazo[1,2-a]pyridin-2-yl)methoxy)pyridin-2-yl)acetamide]
- EC50 [2]: 5 to 50 nM

Compound: CCOC(=O)C(C)(C)Cc1cc(C2CC2)cn2cc(CNc3cc(NC(=O)Cc4ncn5ccc(Cl)cc45)ncn3)nc12 [Example 47, ethyl 3-(2-(((6-(2-(7-chloroimidazo[1,5-a]pyridin-1-yl)acetamido)pyrimidin-4-yl)amino)methyl)-6-cyclopropylimidazo[1,2-a]pyridin-8-yl)-2,2-dimethylpropanoate]
- EC50 [2]: 5 to 50 nM

Compound: N#Cc1cc(C2CC2)cn2cc(CNc3cc(NC(=O)Cc4cc(Cl)ccc4-n4cnnn4)ncn3)nc12 [Example 15, 2-(5-chloro-2-(1H-tetrazol-1-yl)phenyl)-N-(6-(((8-cyano-6-cyclopropylimidazo[1,2-a]pyridin-2-yl)methyl)amino)pyrimidin-4-yl)acetamide]
- EC50 [2]: ≤ 5 nM

Compound: NC(=O)c1ccc(Cl)cc1CC(=O)Nc1cc(NCc2cn3cc(C4CC4)ccc3n2)ncn1 [Example 11, 4-chloro-2-(2-((6-(((6-cyclopropylimidazo[1,2-a]pyridin-2-yl)methyl)amino)pyrimidin-4-yl)amino)-2-oxoethyl)benzamide]
- EC50 [2]: 500 to 9000 nM

Compound: O=C(Cc1ncn2ccc(Cl)cc12)Nc1cc(NCc2cn3cc(C4CC4)ccc3n2)nc(C(F)(F)F)n1 [Example 101, 2-(7-chloroimidazo[1,5-a]pyridin-1-yl)-N-(6-(((6-cyclopropylimidazo[1,2-a]pyridin-2-yl)methyl)amino)-2-(trifluoromethyl)pyrimidin-4-yl)acetamide]
- EC50 [2]: 5 to 50 nM

Compound: O=C(CCc1cccc(Cl)c1)Nc1cc(NCc2cn3cc(C4CC4)ccc3n2)ncn1 [Example 8, 3-(3-chlorophenyl)-N-(6-(((6-cyclopropylimidazo[1,2-a]pyridin-2-yl)methyl)amino)pyrimidin-4-yl)propanamide]
- EC50 [2]: 500 to 9000 nM

Compound: Cc1cc(C(=N)N)cc(C)c1CNc1cc(OCc2cn3cc(C4CC4)ccc3n2)nc(CCC(=O)O)n1 [Example 74, 3-(4-((4-carbamimidoyl-2,6-dimethylbenzyl)amino)-6-((6-cyclopropylimidazo[1,2-a]pyridin-2-yl)methoxy)pyrimidin-2-yl)propanoic acid formic acid salt]
- EC50 [2]: ≤ 5 nM

Compound: CC(Oc1cccc(Cl)c1)C(=O)Nc1cc(NCc2cn3cc(C4CC4)ccc3n2)ncn1 (stereo not shown) [Example 49, 2-(3-chlorophenoxy)-N-(6-(((6-cyclopropylimidazo[1,2-a]pyridin-2-yl)methyl)amino)pyrimidin-4-yl)propanamide formic acid salt]
- EC50 [2]: 500 to 9000 nM

Compound: Cc1cc(C(=N)N)cc(C)c1CNc1cc(NCc2cn3cc(C4CC4)ccc3n2)cnn1 [Example 98, 4-(((5-(((6-cyclopropylimidazo[1,2-a]pyridin-2-yl)methyl)amino)pyridazin-3-yl)amino)methyl)-3,5-dimethylbenzimidamide]
- EC50 [2]: ≤ 5 nM
